Reference: ChEMBL document CHEMBL3991601, “The target landscape of clinical kinase drugs” (Science, 2017)
Calls of active or inactive are those of the source. For most assays here, no stated cut-off is given here; in the data, actives have a measured Kd and inactives only a lower limit.

Assays:
[1] = target: T1, Acyl-CoA dehydrogenase family member 10 (Homo sapiens, UniProt Q6JQN1)
T1 sequence (Q6JQN1 whole entry): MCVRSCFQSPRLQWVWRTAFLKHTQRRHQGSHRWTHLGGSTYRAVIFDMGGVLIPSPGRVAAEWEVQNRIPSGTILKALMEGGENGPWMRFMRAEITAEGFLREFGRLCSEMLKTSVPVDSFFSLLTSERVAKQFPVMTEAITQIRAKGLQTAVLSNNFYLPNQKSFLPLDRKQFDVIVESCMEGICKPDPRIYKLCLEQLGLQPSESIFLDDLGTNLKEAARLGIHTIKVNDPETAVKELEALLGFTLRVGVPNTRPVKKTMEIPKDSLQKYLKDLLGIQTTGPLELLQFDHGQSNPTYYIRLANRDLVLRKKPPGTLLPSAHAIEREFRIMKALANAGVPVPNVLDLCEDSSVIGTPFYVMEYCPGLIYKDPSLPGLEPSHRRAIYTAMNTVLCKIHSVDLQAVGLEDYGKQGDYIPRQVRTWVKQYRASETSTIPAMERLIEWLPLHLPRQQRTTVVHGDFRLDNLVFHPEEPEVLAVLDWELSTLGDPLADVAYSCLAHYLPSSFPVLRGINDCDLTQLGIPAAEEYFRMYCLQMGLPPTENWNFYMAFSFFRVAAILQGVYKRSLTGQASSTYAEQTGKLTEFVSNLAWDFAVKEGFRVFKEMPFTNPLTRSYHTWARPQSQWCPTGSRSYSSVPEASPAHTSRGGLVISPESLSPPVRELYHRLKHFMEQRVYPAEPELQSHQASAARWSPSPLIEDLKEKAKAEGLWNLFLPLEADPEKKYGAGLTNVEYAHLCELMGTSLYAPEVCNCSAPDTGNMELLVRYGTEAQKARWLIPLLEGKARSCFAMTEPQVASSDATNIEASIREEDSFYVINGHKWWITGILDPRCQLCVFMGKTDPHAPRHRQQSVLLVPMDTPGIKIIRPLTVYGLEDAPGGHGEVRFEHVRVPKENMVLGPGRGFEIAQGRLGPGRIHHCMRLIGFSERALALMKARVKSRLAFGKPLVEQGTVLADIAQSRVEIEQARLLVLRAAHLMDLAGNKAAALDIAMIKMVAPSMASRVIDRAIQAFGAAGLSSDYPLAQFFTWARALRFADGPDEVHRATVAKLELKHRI

[2] = target: Mitogen-activated protein kinase kinase kinase kinase 1 (Homo sapiens, UniProt Q92918)
Sequence of Mitogen-activated protein kinase kinase kinase kinase 1 (Q92918 whole entry): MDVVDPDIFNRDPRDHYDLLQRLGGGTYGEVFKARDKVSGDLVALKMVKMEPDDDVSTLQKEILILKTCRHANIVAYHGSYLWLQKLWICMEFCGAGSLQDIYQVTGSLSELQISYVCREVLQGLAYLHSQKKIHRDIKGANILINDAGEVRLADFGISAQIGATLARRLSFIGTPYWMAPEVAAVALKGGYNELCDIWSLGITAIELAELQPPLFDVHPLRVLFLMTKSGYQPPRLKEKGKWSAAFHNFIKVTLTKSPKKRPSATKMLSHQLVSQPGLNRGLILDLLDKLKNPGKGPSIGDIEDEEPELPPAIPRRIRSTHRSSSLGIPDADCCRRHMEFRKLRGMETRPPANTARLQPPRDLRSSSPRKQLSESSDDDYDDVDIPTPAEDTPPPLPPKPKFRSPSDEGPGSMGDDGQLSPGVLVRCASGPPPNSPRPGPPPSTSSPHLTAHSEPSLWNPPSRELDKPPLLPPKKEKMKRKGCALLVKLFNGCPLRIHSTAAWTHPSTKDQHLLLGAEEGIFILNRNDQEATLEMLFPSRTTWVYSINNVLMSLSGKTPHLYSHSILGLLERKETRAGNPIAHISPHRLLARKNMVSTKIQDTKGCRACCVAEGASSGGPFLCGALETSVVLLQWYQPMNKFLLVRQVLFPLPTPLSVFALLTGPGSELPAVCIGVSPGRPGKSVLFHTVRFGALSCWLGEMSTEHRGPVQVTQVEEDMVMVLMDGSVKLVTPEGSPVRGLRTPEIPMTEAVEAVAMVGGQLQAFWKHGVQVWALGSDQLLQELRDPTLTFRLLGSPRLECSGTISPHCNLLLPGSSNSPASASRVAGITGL

[3] = target: T2, Mitogen-activated protein kinase kinase kinase 5 (Homo sapiens, UniProt Q99683)
T2 sequence (Q99683 whole entry): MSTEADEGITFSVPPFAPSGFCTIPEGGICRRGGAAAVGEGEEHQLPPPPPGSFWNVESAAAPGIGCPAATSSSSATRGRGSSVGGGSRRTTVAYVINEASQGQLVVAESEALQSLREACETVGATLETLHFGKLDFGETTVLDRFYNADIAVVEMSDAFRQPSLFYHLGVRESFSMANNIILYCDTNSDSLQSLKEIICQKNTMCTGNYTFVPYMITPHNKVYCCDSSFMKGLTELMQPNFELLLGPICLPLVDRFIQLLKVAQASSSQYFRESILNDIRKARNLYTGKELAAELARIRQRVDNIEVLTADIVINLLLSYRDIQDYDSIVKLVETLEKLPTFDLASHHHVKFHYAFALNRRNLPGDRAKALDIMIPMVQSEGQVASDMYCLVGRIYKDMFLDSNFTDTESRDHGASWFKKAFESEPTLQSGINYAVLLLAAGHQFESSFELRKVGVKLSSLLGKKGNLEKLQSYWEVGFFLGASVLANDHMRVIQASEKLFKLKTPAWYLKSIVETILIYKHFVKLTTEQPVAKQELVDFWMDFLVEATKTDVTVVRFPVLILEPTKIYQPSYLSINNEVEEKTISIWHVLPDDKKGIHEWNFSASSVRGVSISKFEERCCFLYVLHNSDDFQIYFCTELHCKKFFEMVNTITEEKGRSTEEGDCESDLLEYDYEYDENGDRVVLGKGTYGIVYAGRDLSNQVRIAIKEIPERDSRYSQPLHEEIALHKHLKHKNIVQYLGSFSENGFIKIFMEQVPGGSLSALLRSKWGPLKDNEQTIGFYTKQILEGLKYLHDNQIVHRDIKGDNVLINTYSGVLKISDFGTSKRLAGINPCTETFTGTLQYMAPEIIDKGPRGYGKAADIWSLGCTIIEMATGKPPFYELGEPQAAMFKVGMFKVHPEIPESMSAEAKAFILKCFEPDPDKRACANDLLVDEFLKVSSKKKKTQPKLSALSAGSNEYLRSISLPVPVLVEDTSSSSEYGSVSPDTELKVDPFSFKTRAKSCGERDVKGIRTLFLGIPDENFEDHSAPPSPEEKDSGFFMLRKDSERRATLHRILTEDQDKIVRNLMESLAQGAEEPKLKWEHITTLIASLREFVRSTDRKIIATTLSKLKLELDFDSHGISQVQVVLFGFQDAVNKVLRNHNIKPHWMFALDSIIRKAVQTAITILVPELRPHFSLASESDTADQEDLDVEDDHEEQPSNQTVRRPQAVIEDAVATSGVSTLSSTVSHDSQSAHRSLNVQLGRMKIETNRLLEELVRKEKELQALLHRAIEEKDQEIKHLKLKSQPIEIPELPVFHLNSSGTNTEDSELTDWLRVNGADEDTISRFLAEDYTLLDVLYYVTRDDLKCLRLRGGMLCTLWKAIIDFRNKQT

[4] = target: Serine/threonine-protein kinase PAK 4 (Homo sapiens, UniProt O96013)
Sequence of Serine/threonine-protein kinase PAK 4 (O96013 whole entry, canonical isoform): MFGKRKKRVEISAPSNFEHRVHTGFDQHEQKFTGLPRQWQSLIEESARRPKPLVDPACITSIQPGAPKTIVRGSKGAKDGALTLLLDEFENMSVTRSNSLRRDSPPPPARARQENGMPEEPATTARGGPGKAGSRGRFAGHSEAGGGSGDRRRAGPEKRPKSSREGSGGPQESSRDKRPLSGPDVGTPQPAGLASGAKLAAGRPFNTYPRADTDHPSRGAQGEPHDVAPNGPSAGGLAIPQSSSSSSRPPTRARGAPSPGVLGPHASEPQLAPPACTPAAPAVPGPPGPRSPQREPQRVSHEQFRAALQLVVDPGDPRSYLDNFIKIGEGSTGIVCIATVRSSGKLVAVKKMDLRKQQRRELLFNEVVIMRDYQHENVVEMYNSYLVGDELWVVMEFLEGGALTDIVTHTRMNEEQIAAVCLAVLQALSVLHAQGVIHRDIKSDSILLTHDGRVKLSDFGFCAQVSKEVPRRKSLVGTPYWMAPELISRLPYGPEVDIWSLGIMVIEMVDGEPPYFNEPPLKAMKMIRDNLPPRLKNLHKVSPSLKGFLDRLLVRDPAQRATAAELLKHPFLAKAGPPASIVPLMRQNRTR

[5] = target: Casein kinase I isoform delta (Homo sapiens, UniProt P48730)
Sequence of Casein kinase I isoform delta (P48730 whole entry, canonical isoform): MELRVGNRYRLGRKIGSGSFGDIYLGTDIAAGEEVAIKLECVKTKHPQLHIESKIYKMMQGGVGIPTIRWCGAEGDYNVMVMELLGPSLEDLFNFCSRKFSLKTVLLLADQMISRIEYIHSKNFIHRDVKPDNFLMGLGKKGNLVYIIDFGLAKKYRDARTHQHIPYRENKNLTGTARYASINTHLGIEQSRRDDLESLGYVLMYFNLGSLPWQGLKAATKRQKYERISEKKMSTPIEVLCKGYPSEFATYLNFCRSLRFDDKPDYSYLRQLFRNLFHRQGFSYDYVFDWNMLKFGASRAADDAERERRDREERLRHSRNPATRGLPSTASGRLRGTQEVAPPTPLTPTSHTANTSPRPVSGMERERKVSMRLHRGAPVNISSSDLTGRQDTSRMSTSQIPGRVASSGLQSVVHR

Kd [1] | Kd [2] | Kd [3] | Kd [4] | Kd [5] | Structure (SMILES)
> 30 µM (inactive) | > 30 µM (inactive) | > 30 µM (inactive) | > 30 µM (inactive) | > 30 µM (inactive) | COc1cccc2cc(-c3nc([C@H]4CC[C@H](C(=O)O)CC4)n4ncnc(N)c34)[nH]c12 [OSI-027]
> 30 µM (inactive) | > 30 µM (inactive) | > 30 µM (inactive) | > 30 µM (inactive) | > 30 µM (inactive) | COc1ccc2c(OCc3nnc4ccc(-c5ccccc5)nn34)ccnc2c1 [AMG-208]
> 30 µM (inactive) | > 30 µM (inactive) | > 30 µM (inactive) | > 30 µM (inactive) | > 30 µM (inactive) | NC(=O)c1ccc(N(C(N)=O)c2c(F)cccc2F)nc1-c1ccc(F)cc1F [VX-702]

Further lines, the compound ahead of its results:

Structure (SMILES) | Kd [1] | Kd [2] | Kd [3] | Kd [4] | Kd [5]
CNC(=O)c1cc(COc2nnc(Nc3ccc(Cl)cc3)c3ccoc23)ccn1 [TELATINIB] | > 30 µM (inactive) | > 30 µM (inactive) | > 30 µM (inactive) | > 30 µM (inactive) | > 30 µM (inactive)
COc1cc(F)c(F)c(Nc2ccc(I)cc2F)c1NS(=O)(=O)C1(C[C@H](O)CO)CC1 [REFAMETINIB] | > 30 µM (inactive) | > 30 µM (inactive) | > 30 µM (inactive) | > 30 µM (inactive) | > 30 µM (inactive)
CNC(=O)c1ccc(Nc2ncc(C(F)(F)F)c(NCc3nccnc3N(C)S(C)(=O)=O)n2)cc1 [DEFACTINIB] | > 30 µM (inactive) | 3.13 µM (active) | > 30 µM (inactive) | 22 µM (active) | > 30 µM (inactive)
Cc1ccc(C(=O)Nc2ccc(Oc3cc4cnn(C)c4cc3-c3cn[nH]c3)c(F)c2)c(=O)n1-c1ccc(F)cc1 [MERESTINIB] | > 30 µM (inactive) | > 30 µM (inactive) | > 30 µM (inactive) | > 30 µM (inactive) | > 30 µM (inactive)
CNC(=O)c1cccc(-c2ccc3c(N4CCOC[C@@H]4C)nc(N4CCOC[C@@H]4C)nc3n2)c1 [VISTUSERTIB] | > 30 µM (inactive) | > 30 µM (inactive) | > 30 µM (inactive) | > 30 µM (inactive) | > 30 µM (inactive)
c1cc(OCCN2CCCCC2)cc(-c2n[nH]c3ccc(-c4nc[nH]n4)cc23)c1 [CC-401] | > 30 µM (inactive) | > 30 µM (inactive) | > 30 µM (inactive) | > 30 µM (inactive) | 0.287 µM (active)
C=CC(=O)Nc1cc(Nc2nccc(-c3cn(C)c4ccccc34)n2)c(OC)cc1N(C)CCN(C)C [OSIMERTINIB] | > 30 µM (inactive) | > 30 µM (inactive) | > 30 µM (inactive) | > 30 µM (inactive) | > 30 µM (inactive)
COc1cc(Nc2ncc(F)c(Nc3ccc4c(n3)N(COP(=O)(O)O)C(=O)C(C)(C)O4)n2)cc(OC)c1OC [FOSTAMATINIB] | > 30 µM (inactive) | > 30 µM (inactive) | > 30 µM (inactive) | > 30 µM (inactive) | > 30 µM (inactive)
CC(C)CC(=O)Nc1[nH]nc2c1CN(C(=O)C1CCN(C)CC1)C2(C)C [PHA-793887] | > 30 µM (inactive) | > 30 µM (inactive) | > 30 µM (inactive) | 0.864 µM (active) | > 30 µM (inactive)
CC[C@@](C)(Nc1ccnc(-c2c[nH]c3ncccc23)n1)C(=O)NCC(F)(F)F [DECERNOTINIB] | > 30 µM (inactive) | > 30 µM (inactive) | > 30 µM (inactive) | > 30 µM (inactive) | > 30 µM (inactive)
O=c1[nH]c([C@@H]2CCCN2)nc2c1oc1ccc(Cl)cc12 | > 30 µM (inactive) | > 30 µM (inactive) | > 30 µM (inactive) | > 30 µM (inactive) | > 30 µM (inactive)
Cc1c(Cn2c(C)nc3c(C(=O)O)cc(N4CCOCC4)cc32)cccc1C(F)(F)F [GSK-2636771] | > 30 µM (inactive) | > 30 µM (inactive) | > 30 µM (inactive) | > 30 µM (inactive) | > 30 µM (inactive)
Cn1cc(-c2[nH]c3cc(NC(=O)[C@H](N)C4CCCCC4)cc4c3c2C=NNC4=O)cn1 | > 30 µM (inactive) | > 30 µM (inactive) | > 30 µM (inactive) | 0.053 µM (active) | > 30 µM (inactive)
